Assay results taken from paper PMC8850458, “The AUTOTAC chemical biology platform for targeted protein degradation via the autophagy-lysosome system” (Nature Communications, 2022).
Where “and” joins values, the source holds several entries; their conditions need not be identical. Equal entries are not always repeated. Where two headings read alike, the source gives them in different places. Values belong to the compound of their own block, whether it stands above or below them.

Tests used:
p62 = target: T1, p62 (Homo sapiens, UniProt Q13501); assay: In vitro p62 oligomerization assay; assay type: biochemical; conditions: HEK293T lysate
T1 construct: expressed in transfected cells; host or cells: HEK293T, transient; whole lysate used
Method: HEK293T cells were transiently transfected with a plasmid encoding p62-myc/his fusion proteins. Cells were resuspended in lysis buffer [50 mM HEPES (pH 7.4), 0.15 M KCl, 0.1% Nonidet P-40), 10% glycerol, containing a mixture of protease inhibitors and phosphatase inhibitor (Abcam)]. To lyse the cells, 10 cycles of freezing and thawing was done, followed by centrifugation at 13,000 × g for 20 min at 4 °C. Using a BCA assay, the protein concentration of the supernatant was measured. A total of 1 μg of protein was incubated with 1 mM of p62-ZZ ligands in the presence of 100 μM bestatin (Enzo) at room temperature for 2 h. After incubation, each sample was mixed with non-reducing 4X LDS sample buffer, heated at 95 °C for 10 min, and resolved using 4–20% gradient SDS-PAGE (Bio-Rad). To monitor the conversion of p62 monomers into oligomers or aggregates, IB assay was performed using anti-myc antibody.

mutant desminL385P = target: T2, mutant desminL385P (Homo sapiens, UniProt P17661, L385P); assay: WB degradation of mutant desmin in HeLa cells; assay type: cell-based; conditions: exogenously expressed
T2 construct: expressed in transfected cells; host or cells: HeLa, transient
Method: (§1) Adherent cells were washed with phosphate-buffered saline (PBS) and cell pellets were lysed in SDS-based sample buffer (277.8 mM Tris-HCI, pH 6.8, 4.4% LDS, 44.4% (v/v) glycerol) containing beta-mercaptoethanol. Alternatively, cell pellets or protein supernatants were lysed in 5X Laemmli sample buffer. Whole-cell lysates were separated using SDS-PAGE, and transferred onto polyvinyllidene difluoride membranes at 100 V for 2 h at 4 °C. The membrane was incubated with a blocking solution consisting 4% skim milk in PBS solution for 30 min at room temperature and incubated with primary antibodies overnight, followed by incubation with host-specific HRP-conjugated secondary antibodies (1:10000 dilution). For signal detection, the membrane was developed with a mixture of ECL solution (Thermo Fisher Scientific) using X-ray films. Densitometry of developed bands was measured and analyzed with ImageJ (NIH, Bethesda).
(§2) Supplementary Fig. 5. AUTOTACs selectively target pathological aggregation-prone proteins for autophagic degradation. (a) WB in HEK293T cells treated with PBA-1105 (1 μM) and MG132 (1 μM, 24 h) at the indicated time points. (b) ICC of HeLa cells treated with the indicated compounds (1 μM, 24 h). Scale bar, 10 μm. (c) WB in HEK293T cells treated with PBA-1105 (500 nM, 24 h) and MG132 (1 μM, 24 h) under siRNA-mediated knockdown of p62 or ATG7 (20 nM, 48 h). (d) ICC in HeLa cells transiently expressing WIPI2-GFP and treated with Anle138b-F105 (1 μM, 24 h). Scale bar, 10 μm. (e) ICC in HeLa cells treated with […]
(§3) nM, 24 h). (g, h) WB in HeLa cells transiently expressing wild type or mutant (L385P) desmin-flag with LacZ-myc and treated with PBA-1105, PBA-1105b or Anle138b-F105 at the […]

tauP301L = tauP301L (Homo sapiens, UniProt P10636, P618L); assay: WB degradation of tauP301L in SH-SY5Y-tauP301L cells; assay type: cell-based
Outline: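 Lysates in SDS/LDS or Laemmli sample buffer were separated by SDS-PAGE and blotted to PVDF. Target protein was detected with primary antibodies, HRP secondary and ECL on X-ray film, and degradation quantified by band densitometry.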

[1] = test system: mutant huntingtin (Htt-NES-Q97, Htt-NLS-Q97); assay: WB autophagy flux/degradation of mutant huntingtin in HeLa cells; assay type: cell-based; conditions: HttQ97-NLS-GFP, 24 h post-treatment; read-out: DC50 against the nuclear subpopulation of Htt
Method: as §1
Supplementary Fig. 7. AUTOTACs selectively degrade pathological mutant huntingtin.
(a) WB in HeLa-Htt-NLS-Q97-GFP cells treated with PBA-1106 or PBA-1105 (2.5 μM, 24 h) with or without HCQ (25 μM, 24 h). (b) Identical to a but with YOK-1106 instead of PBA-1105 in HeLa-Htt-NES-Q97-GFP cells. […] (k) Quantification of j (n=3 biologically independent experiments each counting 50 cells). […]

wild-type desmin = target: T3, wild-type desmin (Homo sapiens, UniProt P17661); assay: WB degradation of wild-type desmin in HeLa cells; assay type: cell-based; conditions: exogenously expressed
T3 construct: expressed in transfected cells; host or cells: HeLa, transient
Method: as §1, §2, §3

[2] = test system: U87-MG glioblastoma cells; assay: Wound healing assay in U87-MG cells; assay type: cell-based; conditions: as early as 4 h and up to 24 h post-scratch
Method: To analyze cell migration in two dimensions, U-87 MG or ACHN cells were plated to a monolayer. Cells were scratched with a sterile 10 μl pipette tip and the debris was removed using medium. Cells were treated with compounds and incubated for different time to monitor cell behavior. Photographs were obtained using a microscope at different time point.

[3] = target: T4, methionine aminopeptidase 2 (MetAP2) (Homo sapiens, UniProt P50579); assay: Western blot degradation of MetAP2; assay type: cell-based; conditions: for DC50: read-out: DC50 for MetAP2
T4 construct: Targeted autophagic degradation of endogenous oncoproteins by AUTOTAC; endogenous in cells; host or cells: HEK293 / HEK293T, U87-MG
Method: as §1

HeLa cells = assay: Flow cytometry (propidium iodide, sub-G1); assay type: cell-based; conditions: 1 µM, 48 h
Method: Cell death and cell cycle arrest were quantified by staining cells with propidium iodide for flow cytometry with a BD FACSCalibur (BD Biosciences) according to the manufacturer’s instructions. […] Cells were collected by centrifugation and fixed in 70% ethanol at 4 °C for 24 h. Cells were washed with PBS and stained with propidium iodide (10 µg/mL) with RNAse treatment at 37 °C for 30 min. DNA content at each cell cycle checkpoint was measured and analyzed using BD CellQuest Pro (BD Biosciences) and ModFit LT Systems (Verity Software House).

E1 = test system: E1; parameters: method as in printed; conditions: authors' reply, ref not given; cited from earlier work

T4 sequence (P50579 whole entry): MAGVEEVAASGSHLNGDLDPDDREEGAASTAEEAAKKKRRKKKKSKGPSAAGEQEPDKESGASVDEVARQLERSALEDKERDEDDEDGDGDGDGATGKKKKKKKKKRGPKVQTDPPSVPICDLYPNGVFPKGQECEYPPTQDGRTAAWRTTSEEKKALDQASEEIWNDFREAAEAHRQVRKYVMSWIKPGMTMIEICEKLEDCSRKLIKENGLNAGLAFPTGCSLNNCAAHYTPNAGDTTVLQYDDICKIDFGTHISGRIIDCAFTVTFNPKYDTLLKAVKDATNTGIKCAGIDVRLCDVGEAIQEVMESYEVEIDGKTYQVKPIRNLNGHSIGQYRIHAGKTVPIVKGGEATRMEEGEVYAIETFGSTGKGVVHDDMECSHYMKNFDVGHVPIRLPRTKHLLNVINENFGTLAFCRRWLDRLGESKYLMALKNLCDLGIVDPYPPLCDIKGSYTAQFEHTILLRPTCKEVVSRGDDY
Chain of tauP301L (P10636 1-441 isoform P10636-8 P301L): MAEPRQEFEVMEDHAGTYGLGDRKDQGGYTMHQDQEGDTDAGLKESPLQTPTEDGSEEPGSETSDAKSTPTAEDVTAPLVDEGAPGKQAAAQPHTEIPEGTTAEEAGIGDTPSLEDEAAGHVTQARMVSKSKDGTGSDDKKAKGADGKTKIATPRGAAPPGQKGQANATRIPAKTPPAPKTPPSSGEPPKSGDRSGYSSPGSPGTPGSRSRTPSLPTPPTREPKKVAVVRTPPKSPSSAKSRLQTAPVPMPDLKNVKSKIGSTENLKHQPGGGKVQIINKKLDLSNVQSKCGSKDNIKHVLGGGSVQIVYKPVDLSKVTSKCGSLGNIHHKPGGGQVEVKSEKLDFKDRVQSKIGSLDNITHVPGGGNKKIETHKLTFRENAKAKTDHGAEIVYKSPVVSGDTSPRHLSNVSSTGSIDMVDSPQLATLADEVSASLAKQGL
T3 sequence (P17661 whole entry): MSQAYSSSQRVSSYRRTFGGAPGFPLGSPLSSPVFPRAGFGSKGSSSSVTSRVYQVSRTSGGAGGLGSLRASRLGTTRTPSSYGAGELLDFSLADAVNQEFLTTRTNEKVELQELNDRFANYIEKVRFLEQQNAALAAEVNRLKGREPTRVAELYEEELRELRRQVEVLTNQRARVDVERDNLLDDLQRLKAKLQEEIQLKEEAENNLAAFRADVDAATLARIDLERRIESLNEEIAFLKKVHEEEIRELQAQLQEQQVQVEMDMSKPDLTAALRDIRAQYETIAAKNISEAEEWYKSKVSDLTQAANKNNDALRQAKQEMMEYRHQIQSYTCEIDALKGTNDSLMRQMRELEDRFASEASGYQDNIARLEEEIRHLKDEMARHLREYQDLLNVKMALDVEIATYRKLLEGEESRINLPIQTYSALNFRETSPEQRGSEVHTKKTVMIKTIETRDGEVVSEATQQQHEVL
T1 sequence (Q13501 whole entry): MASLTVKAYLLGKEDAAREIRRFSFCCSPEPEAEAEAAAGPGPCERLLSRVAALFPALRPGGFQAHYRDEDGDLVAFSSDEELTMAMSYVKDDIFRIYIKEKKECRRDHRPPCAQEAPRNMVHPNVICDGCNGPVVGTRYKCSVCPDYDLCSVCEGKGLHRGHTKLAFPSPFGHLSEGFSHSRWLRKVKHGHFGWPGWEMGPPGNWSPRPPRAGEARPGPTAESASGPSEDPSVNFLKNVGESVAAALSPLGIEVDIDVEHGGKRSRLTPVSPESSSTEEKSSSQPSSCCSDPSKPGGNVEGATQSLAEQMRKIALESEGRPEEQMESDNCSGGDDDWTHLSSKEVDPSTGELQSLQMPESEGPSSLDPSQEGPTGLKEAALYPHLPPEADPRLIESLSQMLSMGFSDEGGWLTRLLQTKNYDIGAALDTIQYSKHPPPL
T2 sequence (P17661 whole entry L385P): as the sequence (P17661 whole entry) above, with L385P counted along it

- p62 self-oligomerization (p62): facilitated p62 self-polymerization
- degradation of mutant desminL385P (mutant desminL385P): induced the degradation
- persistence of mutant tau degradation post-washout (tauP301L; 100 nM 24 h, then washout): at least 8 h
- DC50 (tauP301L; SH-SY5Y-tauP301L cells): ~3 nM
- DC50 [1]: ~3 nM
- degradation of wild-type desmin (wild-type desmin): not wild-type desmin
Structure (SMILES): Fc1ccc(COc2cccc(CNCCOCCOCCNc3cccc(-c4cc(-c5ccc6c(c5)OCO6)n[nH]4)c3)c2)cc1 [Anle138b-F105]

Structure (SMILES): COC1C(OC(=O)C=CC=CC=CC=CC(=O)NCCOCCOCCNCc2cccc(OCc3ccccc3)c2)CCC2(CO2)C1C1(C)OC1CC=C(C)C (centres unmarked) [Fumagillin-105]
- inhibition of migration [2]: more efficiently inhibited the migration
- MetAP2 normalized to control, AVG % ([3]; 293T, 24 h, 1nM): 99.8808%
- MetAP2 normalized to control, AVG % ([3]; 293T, 24 h, 10nM): 77.0205%
- MetAP2 normalized to control, AVG % ([3]; 293T, 24 h, 100nM): 98.7214%
- MetAP2 normalized to control, AVG % ([3]; 293T, 24 h, 1uM): 25.6004%
- MetAP2 normalized to control, AVG % ([3]; 293T, 24 h, 2.5uM): 44.4377%
- MetAP2 normalized to control, AVG % ([3]; 293T, 24 h, 5uM): 22.9281%
- MetAP2 normalized to control, AVG % ([3]; 293T, 24 h, 10uM): 19.1769%
- Dmax, 24 hr for MetAP2 ([3]; HEK293 cells): 1 to 10 µM
- remaining activity at 0.001 µM ([3]; HEK-293T, 24 h, 293T, 24 h, 1nM, single experiments, read-out: MetAP2 normalized to GAPDH and to control, percentage): 98.3%
- remaining activity at 0.1 µM ([3]; HEK-293T, 24 h, 293T, 24 h, 100nM, single experiments, read-out: MetAP2 normalized to GAPDH and to control, percentage): 98%
- remaining activity at 1 µM ([3]; HEK-293T, 24 h, 293T, 24 h, 1uM, single experiments, read-out: MetAP2 normalized to GAPDH and to control, percentage): 19.3%
- remaining activity at 2.5 µM ([3]; HEK-293T, 24 h, 293T, 24 h, 2.5uM, single experiments, read-out: MetAP2 normalized to GAPDH and to control, percentage): 52.8%
- DC50 ([3]; U87-MG glioblastoma cells, 24 h): ~500 nM
- DC50 ([3]; HEK293 cells (legend: HEK293T), 24 h): ~700 nM and 701 nM
- programmed cell death (sub-G1 subpopulation) (HeLa cells): induced programmed cell death

Structure (SMILES): CCOC(=O)c1ccc(N2NC(=O)/C(=C/c3ccc([N+](=O)[O-])o3)C2=O)cc1 [pyr41]
- IC50 (E1): < 10 µM
